In data set [1] the target is T1, MLC kinase (myosin light-chain kinase) (Gallus gallus, UniProt P11799).
T1 construct: MLC kinase was purified from chicken stomach; from tissue; host or cells: chicken stomach (gizzard smooth muscle)
Put plainly: inhibition of MLC kinase, in vitro enzyme test (32P phosphate incorporation). It counts as biochemical, chicken (stomach). The conditions noted are these: for ratio of IC50 C-kinase/IC50 MLC-kinase: selectivity factor calculated from the IC50 values; for IC50: 1 nM MLC kinase, 250 μM ATP, pH 7.2, 20 minutes at 30° C., read-out: inhibition of the protein kinases, MLC-kinase IC50; for MLC kinase inhibition, in words: potency and selectivity vs protein kinase C.
Protocol: Inhibition of the enzyme MLC kinase (EC 3.6.1.3; kinase of the light myosin chain; myosin light-chain kinase).
The inhibition of MLC kinase was measured in an in vitro enzyme test.
The reaction was initiated by the addition of 1 nM MLC kinase. After incubation for 20 minutes at 30° C., the reaction was stopped with TCA and the samples then filtered off. The phosphate incorporation took place by means of Cerenkov counting of the filter.

In the next data set the target is protein kinase C. Put plainly: inhibition of protein kinase C, enzyme test. It counts as biochemical. The following applies: for IC50: read-out: inhibition of the protein kinases, C-kinase IC50. The method, then: In order to ascertain whether it is a question of a selective inhibition of MLC kinase, the compounds were also investigated in other enzyme tests for protein kinase, including tests for protein kinase C. The results from the PKC test are also given in the following Table I. Furthermore, the Table contains selectivity factors which were calculated by the determination of the ratios of the IC50 values.

The test system of a further data set is human tumour cells. Description: colony test, human tumour cells in soft agar (tumour types in general). Format: cell-based. The conditions noted are these: certain tumour types. The method, then:
For this test, human tumour cells are kept as solid tumour by passage on the nude mouse. For the test, an individual cell suspension is prepared and the cells then plated out in dishes containing soft agar. Under these conditions, the tumour cells multiply and form colonies.

Data set [2] deals with HIV. Description: phorbol ester-induced HIV reactivation, viral protein p24 by ELISA. It counts as cell-based. The following applies: Human immunodeficiency virus 1; U1 cells, PMA stimulation; average value ± SD; n = 3; read-out: inhibition of the HIV production IC50, p24 expression. The method, then: (§1) In the case of the establishment of this hypothesis, use was made of the promonocytic cell line U1.
(§2) Without stimulation, no formation of HIV can be measured in these cells but, after 15 minutes stimulation with the phorbol ester PMA, it results in a massive production of HIV.
(§3) Some of the PKC inhibitors according to the present invention were investigated in this model. As a measure for the HIV production, either with the help of an ELISA test there was determined the viral protein p24 or with the help of an indicator cell, there was measured the HIV-induced formation of syncytia (giant cells produced by the fusion of individual cells).
A general note: ELISA stands for enzyme-linked immunosorbent assay.

Data set [3] has as its system HIV. Put plainly: phorbol ester-induced HIV reactivation, HIV-induced syncytia formation with indicator cell. Format: cell-based. The following applies: Human immunodeficiency virus 1; U1 cells, PMA stimulation; average value; n = 2; read-out: inhibition of the HIV production IC50, syncytia formation. The method, then:
as §1, §2, §3

Data set [4] has as its system HIV. Description: HIV production in PMA-stimulated promonocytic U1 cells (both methods). It counts as cell-based. The method, then:
as §1, §2, §3

Data set [5] concerns promonocytic cell line U1. Put plainly: control experiments for cytotoxic action in the HIV model. Format: cell-based.
Data set [6] has as its system narcotised, spontaneously hypertensive rat (SHR). Description: anti-hypertensive action in narcotised spontaneously hypertensive rats, i.v. Format: in vivo. The following applies: for reduction of the average arterial blood pressure / reduction of the heart frequency: 60 minutes after administration, average ± SD; for anti-hypertensive action, in words / influencing of the heart frequency, in words: i.v. The method, then:
As test model, there was used the narcotised, spontaneously hypertensive rat (SHR). After intravenous administration of the inhibitor of MLC kinase, in each case 60 minutes after the administration of the compound, there were found the reductions of the average arterial blood pressure set out in the following Table 2.

Each structure is given as a SMILES string.

T1 sequence (P11799 935-1906): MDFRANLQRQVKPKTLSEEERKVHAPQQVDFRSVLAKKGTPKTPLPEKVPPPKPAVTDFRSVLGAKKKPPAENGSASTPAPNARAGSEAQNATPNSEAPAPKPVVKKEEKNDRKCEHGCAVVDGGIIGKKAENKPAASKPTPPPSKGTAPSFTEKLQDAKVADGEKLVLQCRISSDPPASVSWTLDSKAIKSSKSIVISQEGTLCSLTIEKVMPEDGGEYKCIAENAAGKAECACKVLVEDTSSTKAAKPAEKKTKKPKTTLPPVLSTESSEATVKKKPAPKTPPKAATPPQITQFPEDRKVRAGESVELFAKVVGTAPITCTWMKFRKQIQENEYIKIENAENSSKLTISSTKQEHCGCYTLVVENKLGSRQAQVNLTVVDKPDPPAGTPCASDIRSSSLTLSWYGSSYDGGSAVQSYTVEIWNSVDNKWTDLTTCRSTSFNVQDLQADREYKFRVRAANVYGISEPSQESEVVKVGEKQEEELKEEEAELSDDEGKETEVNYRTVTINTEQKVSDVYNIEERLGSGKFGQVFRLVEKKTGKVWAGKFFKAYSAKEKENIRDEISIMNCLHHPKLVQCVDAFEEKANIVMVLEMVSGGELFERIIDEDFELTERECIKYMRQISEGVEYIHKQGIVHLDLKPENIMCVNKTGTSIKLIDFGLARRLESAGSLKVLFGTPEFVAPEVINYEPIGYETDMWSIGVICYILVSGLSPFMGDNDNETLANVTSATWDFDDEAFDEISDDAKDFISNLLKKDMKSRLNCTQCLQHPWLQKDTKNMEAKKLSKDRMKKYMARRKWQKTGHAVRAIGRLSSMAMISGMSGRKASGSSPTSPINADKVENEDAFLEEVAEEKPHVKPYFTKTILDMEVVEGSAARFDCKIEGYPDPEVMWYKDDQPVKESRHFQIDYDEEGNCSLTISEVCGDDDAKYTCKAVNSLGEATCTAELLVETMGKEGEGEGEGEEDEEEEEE

Usually IC50 stands for the point on the concentration scale where inhibition reaches its midpoint. Regarding `CN(C)CC(O)Cn1c2ccccc2c2c3c(c4c5ccccc5n(C)c4c21)C(=O)NC3=O` (racemic) [Example 10, (±)-12-(3-Dimethylamino-2-hydroxy-1-propyl)-6,7,12,13-tetrahydro-13-methyl-5,7-dioxo-5H-indolo[2,3-a]pyrrolo-[3,4-c]carbazole], in data set [1], the “ratio of IC50 C-kinase/IC50 MLC-kinase” value is given as 0.2. In addition, the IC50 on protein kinase C amounted to 21 nM. Further, the “inhibition of tumour cell growth, in words” value in the data set with human tumour cells is “the growth of the tumour cells can be inhibited depending upon the concentration”.
In the case of `COc1ccc2c(c1)c1c3c(c4c5ccccc5n(C)c4c1n2CCC#N)C(=O)NC3=O` [Example 1, 13-(2-Cyanoethyl)-6,7,12,13-tetrahydro-3-methoxy-12-methyl-5,7-dioxo-5H-indolo[2,3-a]pyrrolo[3,4-c]-carbazole], the IC50 was determined as 200 nM in data set [1], 1.5 nM at protein kinase C, 118 ± 98 nM in the data set with HIV [2] and 28 nM with HIV [3]. For the same molecule, the “ratio of IC50 C-kinase/IC50 MLC-kinase” value in data set [1] is recorded as 0.008. In addition, the “protein kinase C inhibition, in words” value in the data set on protein kinase C (potency and selectivity vs MLC kinase) was “potent and selective protein kinase C inhibitor”. Further, in the data set on HIV [4] (both test methods), the “anti-HIV action, in words” value is on record as “an anti-HIV action could be demonstrated”. Besides, the “cytotoxic action as cause of the anti-HIV action, in words” value in data set [5] is “the anti-HIV action did not come about due to a cytotoxic action”.
Turning to `NC(=O)CCn1c2ccccc2c2c3c(c4c5ccccc5[nH]c4c21)C(=O)NC3=O` [Example 5, 12-(2-Carbamoylethyl)-6,7,12,13-tetrahydro-5,7-dioxo-5H-indolo[2,3-a]pyrrolo[3,4-c]carbazole], in data set [1], the IC50 is 3.7 nM; the “MLC kinase inhibition, in words” value was “potent and selective inhibitors of MLC kinase”; the “ratio of IC50 C-kinase/IC50 MLC-kinase” value was 24. Further, the IC50 at protein kinase C stood at 87 nM. Also, in data set [6] (1 mg/kg i.v.), the “reduction of the average arterial blood pressure” value stood at 15 ± 5% and the “reduction of the heart frequency” value is 3 ± 3%. In addition, in data set [6] (3 mg/kg i.v.), the “reduction of the average arterial blood pressure” value worked out at 23 ± 3% and the “reduction of the heart frequency” value is 7 ± 4%. Besides, in data set [6] (10 mg/kg i.v.), the “reduction of the average arterial blood pressure” value is on record as 40 ± 8% and the “reduction of the heart frequency” value is 4 ± 3%. Further, in data set [6], the “anti-hypertensive action, in words” value is reported as “dosage-dependent anti-hypertensive action could be demonstrated” and the “influencing of the heart frequency, in words” value (“influencing” below) is on record as “scarcely observable”.
For the molecule `Cn1c2ccccc2c2c3c(c4c5ccccc5[nH]c4c21)C(=O)NC3=O` [Example 7c, 6,7,12,13-tetrahydro-12-methyl-5,7-dioxo-5H-indolo[2,3-a]pyrrolo[3,4-c]carbazole], in data set [1], the half-maximal inhibitory concentration (IC50) was 23 nM; the “MLC kinase inhibition, in words” value is “potent and selective inhibitors of MLC kinase”; the “ratio of IC50 C-kinase/IC50 MLC-kinase” value is greater than 435. Also, the half-maximal inhibitory concentration (IC50) on protein kinase C is greater than 10000 nM. In data set [6] (3 mg/kg i.v.), the “reduction of the average arterial blood pressure” value was found to be 10 ± 7% and the “reduction of the heart frequency” value was 7 ± 3%. Moreover, in data set [6] (10 mg/kg i.v.), the “reduction of the average arterial blood pressure” value is on record as 23 ± 2% and the “reduction of the heart frequency” value is reported as 8 ± 2%. In data set [6], the “anti-hypertensive action, in words” value is on record as “dosage-dependent anti-hypertensive action could be demonstrated” and the “influencing” value is on record as “scarcely observable”.
With `CC(C)N(CCCn1c2ccccc2c2c3c(c4c5ccccc5[nH]c4c21)C(=O)NC3=O)C(C)C` [Example 7g, 12-(3-diisopropylaminopropyl)-6,7,12,13-tetrahydro-5,7-dioxo-5H-indolo[2,3-a]pyrrolo[3,4-c]carbazole], in data set [1], the IC50 worked out at 110 nM and the “ratio of IC50 C-kinase/IC50 MLC-kinase” value was 0.4. The IC50 at protein kinase C worked out at 42 nM. Moreover, the “inhibition of tumour cell growth, in words” value in the data set on human tumour cells is on record as “the growth of the tumour cells can be inhibited depending upon the concentration”.
With `COc1ccc2[nH]c3c4[nH]c5ccc(OC)cc5c4c4c(c3c2c1)C(=O)NC4=O` [Example 11d, 6,7,12,13-tetrahydro-3,9-dimethoxy-5,7-dioxo-5H-indolo[2,3-a]pyrrolo[3,4-c]carbazole], in data set [1], the IC50 was determined as 21 nM; the “MLC kinase inhibition, in words” value was “potent and selective inhibitors of MLC kinase”; the “ratio of IC50 C-kinase/IC50 MLC-kinase” value is greater than 476. Further, the IC50 at protein kinase C is greater than 10000 nM. Also, in data set [6] (3 mg/kg i.v.), the “reduction of the average arterial blood pressure” value is 16 ± 3% and the “reduction of the heart frequency” value is recorded as 6 ± 2%. For the same molecule, in data set [6] (10 mg/kg i.v.), the “reduction of the average arterial blood pressure” value amounted to 35 ± 5% and the “reduction of the heart frequency” value stood at 10 ± 3%. Moreover, in data set [6], the “anti-hypertensive action, in words” value is given as “dosage-dependent anti-hypertensive action could be demonstrated” and the “influencing” value is recorded as “scarcely observable”.
Turning to `Cc1ccc2[nH]c3c4[nH]c5ccc(C)cc5c4c4c(c3c2c1)C(=O)NC4=O` [Example 11e, 6,7,12,13-tetrahydro-3,9-dimethyl-5,7-dioxo-5H-indolo[2,3-a]pyrrolo[3,4-c]carbazole], the IC50 in data set [1] is 600 nM; on protein kinase C it was greater than 10000 nM. Moreover, the “ratio of IC50 C-kinase/IC50 MLC-kinase” value in data set [1] was greater than 17.
On the same counts, the results for `O=C1NC(=O)c2c1c1c3cc(Br)ccc3[nH]c1c1[nH]c3ccc(Br)cc3c21` [Example 11g, 3,9-dibromo-6,7,12,13-tetrahydro-5,7-dioxo-5H-indolo[2,3-a]pyrrolo[3,4-c]carbazole] are 370 nM, 4600 nM and 12.
With `CC1CNCCN1S(=O)(=O)c1cccc2cnccc12` (stereo not drawn) [Example H-7, reference compound], the “suppression of HIV production, in words” value with HIV [4] (1 hour before PMA stimulation and 48 hours after) is on record as “the production of HIV can be completely suppressed”.

The values are drawn from patent US5945440A, “Indolocarbazole imides and the use thereof” (priority 1992, dated 1999).
